The results in this text go back to patent US20110183942A1, “Methods and Compositions for Treating Alzheimer's Disease” (UNIVERSITY OF MEDICINE AND DENTISTRY OF NEW JERSEY, priority 2008, published 2011).

For assay [1], the system named is hippocampal Schaffer collateral-CA1 synapses. Description: Field recording of fEPSP (mGluR-LTD) in acute hippocampal slices. To be noted: for DHPG-LTD (fEPSP slope): t=75 min. It is filed as cell-based, mouse. As for the experimental part:
For recording, slices were placed in a submersion recording chamber and perfused with 30° C. ACSF at a rate of 2 ml/min.
fEPSPs were recorded with extracellular recording electrodes (1.0 MΩ) filled with ACSF and placed in the stratum radiatum of area CA1. Synaptic responses were evoked by a 200-μsec current pulse to Schaffer collateral axons with a concentric bipolar tungsten stimulating electrode. Stable baseline responses were collected every 30 sec by using a stimulation intensity (10-30 μA) yielding 50-60% of the maximal fEPSP slope response.
mGluR-LTD was induced by a mGluR1/5 agonist, (R,S)-3,5-DHPG (Tocris), or by electrical stimulations. […] NMDAR dependent-LTD was induced by using 900 single pulses delivered at 1 Hz.

The subject of assay [2] is Arc mRNA in cultured neurons. Description: Real-time RT-PCR of Arc mRNA. Type of assay: cell-based. Particulars: BDNF 10 ng/ml at 40 min; forskolin 50 μM at 20 min; DHPG at 20 and 40 min after stimulation. On the procedure:
RNA samples from neuronal cultures were prepared using the PARIS kit (Ambion) according to the manufacturer's protocol. Following RNA extraction, samples were treated with DNase to remove contaminating DNA prior to cDNA synthesis. Total RNA was reverse transcribed using the SuperScript II First Strand Synthesis System for RT-PCR (Invitrogen) according to the manufacturer's protocol. A negative control without reverse transcriptase was included.
Primer specificity was verified by melt curve analysis. PCR amplification of cDNA was performed using the BioRad iCycler Real-Time Detection System (BioRad Laboratories). cDNA (1 μl) was added to 24 μl of 1× reaction master mix (3 mM MgCl2, KCl, Tris-HCl, iTaq DNA polymerase, 25 units/ml SYBR Green 1, 0.2 mM each dNTPs, 10 nM fluorescein and 500 nM each gene specific primers). […]
GAPDH was used to normalize data. The threshold for detection of PCR product above background was set at 10× the standard deviation of the mean background fluorescence for all reactions. Background fluorescence was determined from cycles 1-5 prior to the exponential amplification of product and subtracted from the raw fluorescence of each reaction/cycle. […] Threshold cycle (CT; number of cycles to reach threshold of detection) was determined for each reaction.
Relative gene expression was determined using the 2^−ΔΔCT method (Livak, et al., Methods 25, 402-408 (2001)). […]
For orientation: Quantitative PCR measures a nucleic acid by following its amplification.

For assay [3], the system named is GluR1-containing AMPA receptors in primary hippocampal neurons. In words: AMPA receptor trafficking (surface and internalized GluR1 labeling). Type of assay: cell-based, mouse. As for the experimental part:
(§1) Labeling of surface or internalized pool of AMPA receptor was performed as described with minor modifications (Shepherd, et al., Neuron, 52, 475-484 (2006)). Briefly, surface GluR1-containing AMPA receptors were then labeled by adding 2.5 μg of GluR1-N JH1816 pAb to the neuronal growth media and were subsequently incubated at 37° C. for 15 or 60 minutes after 5 min DHPG application. To visualize surface and internalized GluR1, Alexa 555 secondary was added in excess live at 10° C. Neurons were fixed, permeabilized and subsequently exposed to Alexa 488 secondary to stain internalized receptors (background in the non-permeabilized control was negligible).
as §1, with “DIV 14-21 mouse primary hippocampal cultures were incubated in neuronal growth media containing 50 μMDHPG for 5 minutes and then washed” for “Labeling of surface or internalized pool of AMPA receptor was performed as described”, “new growth media. Surface” for “minor modifications (Shepherd, et al., Neuron, 52, 475-484 (2006)). Briefly, surface”
Quantification of surface GluR1 puncta was carried out using Image J software. Images were acquired as multi-channel TIFF files with a dynamic range of 4096 gray levels (12-bit binary; MultiTrack acquisition for confocal) using metamorph software on a Zeiss LSM 510 confocal microscope. To measure punctate structures neurons were thresholded by gray value at a level close to 50% of the dynamic range. Background noise from these images was negligible. All puncta were treated as individual objects and the characteristics of each, such as area and average fluorescence, were logged measured. The Data reflected in FIGS. 1B-C was an example of one representative experiment. The total intensity of GluR1 levels were normalized to control, untreated neurons at 60 min. Significance was determined by a paired Student's t-test.

The test system of assay [4] is global protein synthesis in cultured neurons. Description: Metabolic labeling, incorporation of 35S methionine and cysteine into TCA precipitant. Type of assay: cell-based. On the procedure:
To measure the incorporation of ^35S methionine and cysteine into new peptide, 30 μl protein labeling mix (Perkin Elmer) was added into 1.5 ml of regular culture medium (final 220 μCi/ml) for the time indicated in the figures. After washout once with ice-cold PBS, cells were lysed with 700 μl of RIPA buffer. After quantification of total amount of protein, equal amount of lysate (˜200 μl) was precipitated with 10% TCA.

In the case of `NC(C(=O)O)c1cc(O)cc(O)c1` (racemic) [DHPG, (R,S)-3,5-DHPG], the “fEPSP slope after DHPG” value in assay [1] (Arc KO slices, DHPG 50 μM 5 min, t=70 min) is recorded as 92.1±3.7 % of baseline; in assay [1] (Arc KO slices, DHPG 100 μM 5 min, t=90 min) it was 88.5±7.4 % of baseline; in assay [1] (WT slices (littermates of Arc KO), DHPG 50 μM 5 min, t=70 min), 72.8±2.0 % of baseline; in assay [1] (WT slices (littermates of eEF2K KO), DHPG 50 μM 5 min, t=90 min) it was 64.7±5.2 % of baseline; in assay [1] (WT slices, DHPG 100 μM 5 min, t=90 min), 64.4±2.6 % of baseline; in assay [1] (eEF2K KO slices, DHPG 50 μM 5 min, t=90 min), 108.7±3.6 % of baseline. For the same compound, the “DHPG-LTD (fEPSP slope)” value in assay [1] (Arc/Fmr1 DKO slices, DHPG 50 μM 5 min) is on record as 85.9±4.1 % of baseline; in assay [1] (FVB WT slices, DHPG 50 μM 5 min), 73.0±6.6 % of baseline; in assay [1] (Fmr1 KO slices, DHPG 50 μM 5 min), 68.2±2.6 % of baseline. The “level of Arc mRNA” value in assay [2] was “slightly increased the level of Arc mRNA”. Besides, the “internalized GluR1” value in assay [3] (Arc KO neurons, after DHPG) was “did not exhibit changes”; in assay [3] (WT cultures, 15 min after 5 min DHPG) it was “increase of internalized GluR1”. Further, the “surface GluR1” value in assay [3] (Arc KO neurons, after DHPG) is on record as “did not exhibit any changes”; in assay [3] (WT hippocampal cultures, 15 min and 60 min after 5 min DHPG) it was “loss of surface GluR1”. The “global protein synthesis compared to untreated control” value came to 1.080±0.036 in assay [4] (pretreatment of DHPG (30 min before harvest for 5 min)) and 0.926±0.017 in assay [4] (simultaneous treatment of DHPG for 5 min).
